Experiments:
[1] = for mass density / thermal conductivity / viscosity: 101.33 kPa, Liquid; for mass density: Vibrating tube method; for thermal conductivity: Parallel plate method; for viscosity: Cone and plate viscometry; for Glass transition temperature: DTA
[2] = molar heat capacity at constant pressure; settings: 101.33 kPa, Liquid, Small sample (50 mg) DSC

CCCCCC[n+]1ccn(C)c1.O=S(=O)([N-]S(=O)(=O)C(F)(F)F)C(F)(F)F
[1]
Settings	mass density [kg/m3]	thermal conductivity [W/m/K]
283 K	1385.63	–
293 K	1376.5	–
300 K	–	0.12
303 K	1367.38	–
313 K	1358.3	–
323 K	1349.27	–
333 K	1340.34	–
343 K	1331.41	–
353 K	1322.54	–
363 K	1313.73	–
375 K	–	0.12

CCOP(=O)([O-])OCC.CCn1cc[n+](C)c1 [1-ethyl-3-methylimidazolium diethyl phosphate]
Settings	molar heat capacity at constant pressure [J/K/mol]	thermal conductivity [W/m/K]	viscosity [mPa·s]
[1], 283 K	–	–	1280
[1], 293 K	–	–	580
[1], 298 K	–	–	410
[1], 300 K	–	0.19	–
[1], 303 K	–	–	300
[1], 313 K	–	–	168
[1], 323 K	–	–	101
[1], 333 K	–	–	66
[1], 343 K	–	–	45
[1], 375 K	–	0.19	–
[2], 298 K	459.81	–	–
[2], 303 K	465.1	–	–
[2], 308 K	467.74	–	–
[2], 313 K	470.38	–	–
[2], 318 K	475.67	–	–
[2], 323 K	478.31	–	–
[2], 328 K	480.95	–	–
[2], 333 K	486.24	–	–
[2], 338 K	488.88	–	–
[2], 343 K	494.16	–	–

Settings	Glass transition temperature [°C]
[1]	-66

CCn1cc[n+](C)c1.CS(=O)(=O)[O-] [1-ethyl-3-methylimidazolium methanesulfonate]
[1]
Settings	thermal conductivity [W/m/K]	viscosity [mPa·s]
283 K	–	450
293 K	–	210
298 K	–	155
300 K	0.21	–
303 K	–	117
313 K	–	70
323 K	–	45
333 K	–	31
343 K	–	23
375 K	0.21	–

Settings	Glass transition temperature [°C]
[1]	-62

CCn1cc[n+](C)c1.N#C[S-] [1-ethyl-3-methylimidazolium thiocyanate]
[1]
Settings	thermal conductivity [W/m/K]
300 K	0.21
375 K	0.21

Settings	Glass transition temperature [°C]
[1]	-94

CCn1cc[n+](C)c1.O=C([O-])C(F)(F)F [1-ethyl-3-methylimidazolium trifluoroacetate]
[1]
Settings	thermal conductivity [W/m/K]
300 K	0.17
375 K	0.17

CCn1cc[n+](C)c1.O=S(=O)([O-])C(F)(F)F [1-ethyl-3-methylimidazolium trifluoromethanesulfonate]
[1]
Settings	thermal conductivity [W/m/K]
300 K	0.16
375 K	0.16
